These results are taken from article PMC8421619, “Investigation of MDMA Inhibitory Effect on CytochromeP450 3A4 in Isolated Perfused Rat Liver Model Using Tramadol” (Advanced Pharmaceutical Bulletin, 2020).

One series has as its system CYP2D6. Kind of series: Isolated perfused rat liver, tramadol O-demethylation to M1 after MDMA or paroxetine pretreatment. In kind it is in vivo. The settings on record: tramadol 1 µg/mL, n=4; for Metabolite ratio M1 % decrease compared to the control group: AUC0-t M1 / AUC0-t tramadol.
The next series relates to CYP3A4. Kind of series: Isolated perfused rat liver, tramadol N-demethylation to M2 after MDMA or paroxetine pretreatment. The settings on record: regular doses of MDMA (1-10 mg/kg). In kind it is in vivo.
Series [1] is described as follows: Isolated perfused rat liver, tramadol AUC in perfusate after MDMA or paroxetine pretreatment. In kind it is in vivo. The settings on record: MDMA 1, 5 and 10 mg/kg i.p.; tramadol 1 µg/mL.
On the set-up of series [2]: method as in doi:10.1007/s002130000545, PMID 12404536, PMID 12869661. The note with it: following ecstasy consumption; cited from earlier work.

Marks after values point to notes of the source that are not given here.

`CNC(C)Cc1ccc2c(c1)OCO2` (stereo not shown) [MDMA, methylenedioxymethamphetamine]: the “AUC M1 % decrease compared to the control group” value with CYP2D6 (MDMA 1 mg/kg i.p. 1 h before liver perfusion) amounted to 38%; with CYP2D6 (MDMA 10 mg/kg i.p. 1 h before liver perfusion) it was 50%. The “Metabolite ratio M1 % decrease compared to the control group” value in the series with CYP2D6 (MDMA 1 mg/kg i.p.) was found to be 29%; with CYP2D6 (MDMA 10 mg/kg i.p.), 45%. Further, the CYP3A4 activity inhibition result in the series on CYP3A4 is on record as “cannot inhibit”. In addition, the “tramadol AUC compared to the control group” value in series [1] is listed as “no significant differences”. For the same compound, the “duration of positive psychological effects” value in series [2] was 3-6 hours.
For `Fc1ccc([C@@H]2CCNC[C@H]2COc2ccc3c(c2)OCO3)cc1` [paroxetine], the “AUC M1 % decrease compared to the control group” value in the series on CYP2D6 (paroxetine 0.266 mg/kg oral, three consecutive days, listed as PXL) is on record as 40* %. For the same compound, the “Metabolite ratio M1 % decrease compared to the control group” value was 30% in the series on CYP2D6 (paroxetine 0.266 mg/kg oral, three days) and 30* % in the series with CYP2D6 (paroxetine 0.266 mg/kg oral, three days, listed as PXL).
